The values below come from patent US20110104144A1, “METHODS FOR TREATING CUTANEOUS LUPUS USING AMINOISOINDOLINE COMPOUNDS” (CELGENE CORPORATION, priority 2005, published 2011).

Some results are limits rather than exact numbers.

One assay relates to TNF-α. The experiment in a line: Ultraviolet B-induced TNF-alpha production by human keratinocytes (HEKn cells), TNF-α ELISA. In kind it is cell-based. Particulars: HEKn cells treated 4 hours at 0.1 μM. As to the method: Cutaneous lupus patients often experience disease exacerbation when exposed to ultraviolet (UV) light. This is thought to be due to UVB-induced TNF-α production by keratinocytes. […] In vitro study for cutaneous lupus was performed to investigate how the compounds of the invention affect TNF-α production in keratinocytes.
Human neonatal foreskin epidermal keratinocytes (HEKn cells) were obtained from Cascade Biologics and were grown in serum-free medium supplemented with growth factors. When cells reached 80% confluency, they were trypsinized and plated at 1×10^5 cells/well in 6 well dishes. Plates were incubated for 24 hours to allow cell adhesion. To optimize conditions for the release of TNF-α, cells were treated with various degrees of exposure to UVB radiation (1, 4 and 24 hours). Supernatants were then collected and tested in the TNF-α ELISA.
Supernatants were collected and tested in the TNF-α ELISA at 1 Hour (bars with no pattern), 4 Hours (lined bars), or 24 Hours (checkered bars) after exposure. Results are the average of two experiments. The results shown in FIG. 7 indicate that supernatants collected 24 hours after HEKn cells were exposed to UVB had the highest levels of TNF-α. After exposure to 10, 50, or 100 mJ/cm^2, cells remained attached to the wells and no cell damage was observed. The 300 mJ/cm^2 UVB exposure was too high for the HEKn cells and many cells were damaged and detached from the bottom of the wells.
Cells were treated for 4 hours with (+)-2-[1-(3-ethoxy-4-methoxyphenyl)-2-methylsulfonylethyl]-4-acetylaminoisoindoline-1,3-dione (compound named 10004), or cyclopropyl {2-[(1S)-1-(3-ethoxy-4-methoxyphenyl)-2-(methylsulfonyl)ethyl]-3-oxoisoindolin-4-yl}carboxamide (compound named 11050) at 0.1 μM, 1 μM, or 10 μM. Medium was aspirated the cells washed and then exposed to 50 mJ/cm^2 UVB radiation. Fresh medium was added and the cells were incubated for 24 hours. Supernatents were removed and tested in the TNF-α ELISA kit from Pierce Biotechnology. […] (FIG. 8). […] (FIG. 8).
In other experiments, cells were treated for 4 hours with 3-(4-amino-1-oxo-1,3-dihydro-isoindol-2-yl)-piperidine-2,6-dione (compound named 5013), (+)-2-[1-(3-ethoxy-4-methoxyphenyl)-2-methylsulfonylethyl]-4-acetylaminoisoindoline-1,3-dione (compound named 10004) or compound named 16057, at 0.1 μM or 1 μM. […] (FIG. 9). […] (FIG. 9).

The test system of the next assay is CD51/61. The experiment in a line: HUVEC cell surface expression of CD51/61 by flow cytometry. In kind it is cell-based, Human. The following applies: unstimulated, 10 μM, FIG. 1. As for the experimental part: (§1) A) Materials. Human Umbilical Vein Endothelial Cells (HUVEC) sent from LifeBank, were tested in Experiments A-K with several adhesion molecules. The adhesion molecules tested were CD51/CD61FITC (obtained from BD PharMingen, San Diego, Calif.; Catalog No. 555505), ICAM-1 PE also known as CD54 (obtained from BD PharMingen, San Diego, Calif.; Catalog No. 555511), ICAM-2 also known as CD102 (obtained from Research Diagnostics Inc., Concord, Mass.; Catalog No. RDI-CBL539FT), VCAM-1 (obtained from BD PharMingen, San Diego, Calif.; Catalog No. 555647), P-Selectin FITC (obtained from R&D Systems, Inc., Minneapolis, Minn.; Catalog No. BBA34), E-Selectin FITC (obtained from R&D Systems, Inc., Minneapolis, Minn.; Catalog No. BBA21), HLA Class I FITC (obtained from BD PharMingen, San Diego, Calif.; Catalog No. 555553), HLA Class II PE (obtained from BD PharMingen, San Diego, Calif.; Catalog No. 555558), CD44 FITC (obtained from BD PharMingen, San Diego, Calif.; Catalog No. 347943), CD144 (Cadherin VE) (obtained from CHEMICON International, Inc., Temecula, Calif.; Catalog No. MAB1989), IgG2a FITC (obtained from BD PharMingen, San Diego, Calif.; Cat #556652), Ms IgG2a (obtained from CHEMICON International, Inc., Temecula, Calif.; Cat. No. PP102), IgG1 FITC (obtained from BD PharMingen, San Diego, Calif.; Cat. No. 349041) and IgG1 PE (obtained from BD PharMingen, San Diego, Calif.; Cat. No. 349043).
(§2) Compound (1) ((+)-2-[1-(3-ethoxy-4-methoxyphenyl)-2-methylsulfonylethyl]-4-acetylaminoisoindoline-1,3-dione) and Compound (2) (4-(amino)-2-(2,6-dioxo(3-piperidyl))-isoindoline-1,3-dione) were obtained according to the preparation procedures disclosed herein. 16,16-Dimethyl-PGE2 (hereinafter PGE2) was obtained from BIOMOL International, L.P. (Plymouth Meeting, Pa.; Catalog No. PG-021). TNF-αwas obtained from Pierce Biotechnology (Rockford, Ill.; Catalog No. RTNFA 10).
(§3) B) Methods. […]
A general note: A flow cytometer gives signals particle by particle.

Assay [1] relates to E-Selectin. The experiment in a line: HUVEC cell surface expression of E-Selectin by flow cytometry. In kind it is cell-based, Human. The following applies: 10 μM; for inhibition of TNF-α-induced E-Selectin expression: TNF-α (1 ng/ml) stimulated, FIG. 3. As for the experimental part: as §1, §2
(§4) B) Methods. HUVEC's were plated on 6-well plates at a concentration of 1×10^5 cells/well in 3 ml EBM® endothelial basal media (obtained from Cambrex Corporation, East Rutherford, N.J.; Catalog No. CC-3121) and singlequots (obtained from Cambrex Corporation, East Rutherford, N.J.; Catalog No. CC-4133). The cells were incubated overnight in a 37° C. and 5% CO2 humidified incubator to allow cells to attach. The old media was removed in next day and replaced with 3 ml fresh EBM® endothelial basal media. Then, samples of 3 μl of 10 mM of Compound (1), Compound (2), PGE2 and a mixture of Compound (1) and PGE2 were added separately to each well of the plates in duplicate to give a final concentration of 10 μM. An unstimulated DMSO control and a TNF-α-stimulated control were also added in duplicate. The plates were incubated in a 37° C. and 5% CO2 humidified incubator for 1 hr. […] The plates were incubated overnight in a 37° C. and 5% CO2 humidified incubator. The cells were also tested without TNF-α. The media was removed in the next day and each well was washed with 3 ml of phosphate buffered saline (PBS). Then, 3 ml of PBS containing 1 mM of EDTA (ethylenediaminetetraacetate) was added to each well to allow the cells to detach. Once the cells detached, they were gently scraped and placed in 4.5 ml Falcon tubes. The tubes were then centrifuged at 1200 RPM for 8 minutes at 4° C. The supernatant was carefully removed. Next, 50 μl of PBS-FACS buffer (5% fetal bovine serum (FBS), 0.02% sodium azide in PBS) and 20 μl of antibodies were added to all tubes as follows:
(§5) After the antibodies were added, the tubes were incubated on ice for 30 minutes and covered with foil. Then, the tubes were centrifuged at 1200 RPM for 8 minutes at 4° C. The supernatant was carefully removed. The cells were re-suspended in 2 ml of PBS-FACS buffer and centrifuged again as above. The supernatant was carefully removed again and the cells were re-suspended in 500 μl of PBS-FACS buffer. The tubes were then analyzed using a flow cytometer. […]

The subject of the next assay is VE-Cadherin. The experiment in a line: HUVEC cell surface expression of VE-Cadherin (CD144) by flow cytometry. Format: cell-based, Human. The following applies: 10 μM, FIG. 4. As to the method:
as §1, §2, §3

Assay [2] deals with E-Selectin. The experiment in a line: E-Selectin cell surface expression in HUVEC detected by ELISA. In kind it is cell-based, Human. The following applies: HUVEC, 0.25, 0.5 and 1 ng/ml of TNF-α, 10 μM, FIG. 6. From the text:
In this assay, the mixture of Compound (1) and PGE2 appeared to work synergistically.
(An ELISA detects its analyte on a solid surface through an enzyme-linked reagent.)

The test system of a further assay is P-Selectin. The experiment in a line: HUVEC cell surface expression of P-Selectin by flow cytometry. The following applies: 10 μM. Format: cell-based, Human. As for the experimental part: as §1, §2, §4, §5
A further assay deals with CD44. The experiment in a line: HUVEC cell surface expression of CD44 by flow cytometry. In kind it is cell-based, Human. The following applies: 10 μM, FIG. 4. As for the experimental part:
as §1, §2, §3

A further assay concerns VCAM. The experiment in a line: HUVEC cell surface expression of VCAM by flow cytometry. The following applies: TNF-α stimulated, 10 μM, FIG. 5. Format: cell-based, Human. As for the experimental part:
A) Materials. Human Umbilical Vein Endothelial Cells (HUVEC) sent from LifeBank, were tested in Experiments A-K with several adhesion molecules. […]

Take `Nc1cccc2c1CN(C1CCC(=O)NC1=O)C2=O` (centres unmarked) [Compound 5013, 3-(4-amino-1-oxo-1,3-dihydro-isoindol-2-yl)-piperidine-2,6-dione]: the “TNF-α levels after UVB exposure with the 0.1 μM treatment” value in the assay with TNF-α (UVB, FIG. 9) is “TNF-α levels lower than cells not treated with radiation”.
`CCOc1cc([C@@H](CS(C)(=O)=O)N2Cc3cccc(NC(=O)C4CC4)c3C2=O)ccc1OC` [Compound 11050, cyclopropyl {2-[(1S)-1-(3-ethoxy-4-methoxyphenyl)-2-(methylsulfonyl)ethyl]-3-oxoisoindolin-4-yl}carboxamide]: the “levels of TNF-α released after UVB exposure” value in the assay with TNF-α (1 μM, or 10 μM, 50 mJ/cm^2 UVB, 24 hours, FIG. 8) is on record as “dose dependent decrease”.
`Nc1cccc2c1C(=O)N(C1CCC(=O)NC1=O)C2=O` (centres unmarked) [Compound (2), 4-(amino)-2-(2,6-dioxo(3-piperidyl))-isoindoline-1,3-dione]: the “CD51/61 cell surface expression compared to untreated conditions” value in the assay with CD51/61 is recorded as “unaffected”. In addition, the “inhibition of TNF-α-induced E-Selectin expression” value in the assay with E-Selectin [1] is on record as “approximately 20%”. For the same compound, in the assay on E-Selectin [1] (unstimulated, FIG. 2), the “E-Selectin cell surface expression” value is recorded as “inhibited”. For the same compound, the “TNF-α-stimulated cell surface expression of VE-Cadherin” value in the assay with VE-Cadherin is recorded as “unaffected”. Besides, the “TNF-α-stimulated E-Selectin cell surface expression (ELISA)” value in the assay with E-Selectin [2] was “inhibitory effect”. The “increase of TNF-α-induced cell expression of P-Selectin above baseline” value in the assay with P-Selectin (TNF-α (1 ng/ml) stimulated, FIG. 3) is > 2 fold. For the same compound, the “increase of P-Selectin expression” value in the assay on P-Selectin (TNF-α stimulated, FIG. 5) was ~2 fold. Also, the “inhibition of P-Selectin expression” value in the assay on P-Selectin (unstimulated, FIG. 2) is ~35%. The “inhibition of TNF-α-stimulated cell surface expression of CD44” value in the assay with CD44 was “approximately 30%”.
With `CCCCC(C)(C)[C@H](O)/C=C/[C@H]1[C@H](O)CC(=O)[C@@H]1C/C=C\CCCC(=O)O` [PGE2, 16,16-Dimethyl-PGE2, reference compound], the “reduction in the CD51/61 cell surface expression” value in the assay with CD51/61 worked out at 20%. The “inhibition of TNF-α-induced E-Selectin expression” value in the assay with E-Selectin [1] is reported as 50%. Also, the “cell surface expression of E-Selectin” value in the assay with E-Selectin [1] (TNF-α stimulated, FIG. 5) is reported as “significantly decreased”. In the assay with VE-Cadherin, the “TNF-α-stimulated cell surface expression of VE-Cadherin” value was “unaffected”. In the assay on VCAM, the “cell surface expression of VCAM” value was “significantly decreased”. For the same compound, in the assay with CD44, the “TNF-α-stimulated cell surface expression of CD44” value is given as “no detectable effects”.
